Laboratory results: US20210113501A1, “METHOD OF ADMINISTERING BETA-HYDROXY-BETA-METHYLBUTYRATE (HMB)” (Metabolic Technologies, Inc., priority 2009, published 2021)

Test: Study 1 blood chemistry
Type: in vivo, human
Settings: for Gamma-glutamyl: in U/L (unit assumed)
Protocol: Study 1 design. For study 1 the subjects reported to the laboratory in the morning following an overnight fast. Before ingestion of one of the supplemental treatments, a flexible sterile polyethylene catheter was inserted into a forearm vein using sterile procedures and a pre-ingestion blood sample was drawn. Subsequent blood samples were taken at 0, 2, 5, 10, 15, 25, 35, 45, 60, 90, 120 and 180 min after ingestion of the treatment. Plasma was separated and samples were stored frozen at −70° C. for analysis of HMB concentration. In addition, a portion of the pre-ingestion and 180 minute blood samples were used for measurements (LabCorp, Kansas City, Mo.) of glucose, uric acid, blood urea nitrogen (BUN), creatinine, sodium, potassium, chloride, carbon dioxide, phosphorous, protein, albumin, globulin, albumin:globulin ratio, total bilirubin, direct bilirubin, alkaline phosphatase, lactate dehydrogenase, aspartate aminotransferase (AST), alanine aminotransferase (ALT), gamma-glutamyl transpeptidase (GGT), iron binding capacity (TIBC), unsaturated iron binding capacity (UIBC), iron, iron saturation, total cholesterol, triglycerides, high density lipoprotein (HDL), low density lipoprotein (LDL), and cholesterol ratio. A complete blood count (CBC) was also performed before and after the 180 min treatment period. Subjects also completed a brief questionnaire to report any physical symptoms (such as nausea, headache, etc) they may have experienced during the experiment.
The data were analyzed using a crossover design with Proc GLM in SAS. (45) For the timed sampling of plasma HMB a repeated measures polynomial model was used. The model included subject, order, and treatment main effects and time by treatment interaction where appropriate. For other parameters Proc GLM was also used with subject, order, and treatment main effects and the p values are reported for the treatment main effect. Statistical significance was determined for p<0.05 and a trend was determined for 0.05<p<0.10.

## CC(C)(O)CC(=O)[O-].CC(C)(O)CC(=O)[O-].[Ca+2] [CaHMB, calcium β-hydroxy-β-methylbutryate, reference compound]
After (180 min)
  A:G Ratio: 1.7 ± 0.1
  Alanine Aminotransferase: 15.6 ± 2.0 IU/L
  Albumin: 4.1 ± 0.1 g/dL
  Alkaline Phosphatase: 68.4 ± 8.4 IU/L
  Aspartate Aminotransferase: 22.4 ± 1.8 IU/L
  Blood Urea Nitrogen: 11.3 ± 0.9 mg/dL
  CO2: 24.8 ± 0.5 mEq/L
  Chloride: 103.1 ± 0.7 mEq/L
  Cholesterol Ratio: 3.0 ± 0.1
  Creatinine: 0.9 ± 0.1 mg/dL
  Direct Bilirubin: 0.1 ± 0.01 mg/dL
  Globulin: 2.5 ± 0.2 g/dL
  Glucose: 76.4 ± 3.2 mg/dL
  HDL: 53.1 ± 3.8 mg/dL
  Iron: 93.0 ± 16.8 µg/dL
  Iron Binding Capacity: 342.8 ± 35.9 µg/dL
  Iron Saturation: 31.1 ± 8.9%
  LDL: 86.5 ± 5.7 mg/dL
  Lactate Dehydrogenase: 165.6 ± 10.7 IU/L
  Phosphorus: 3.5 ± 0.3 mg/dL
  Potassium: 4.7 ± 0.2 mEq/L
  Protein: 6.5 ± 0.3 g/dL
  Sodium: 139.4 ± 0.8 mEq/L
  Total Bilirubin: 0.5 ± 0.08 mg/dL
  Total Cholesterol: 153.9 ± 9.7 mg/dL
  Triglycerides: 71.6 ± 11.2 mg/dL
  UIBC: 249.8 ± 47.7 µg/dL
  Uric Acid: 4.5 ± 0.4 mg/dL
  Gamma-glutamyl: 13.1 ± 0.9
Before
  A:G Ratio: 1.8 ± 0.1
  Alanine Aminotransferase: 14.1 ± 1.5 IU/L
  Albumin: 4.0 ± 0.1 g/dL
  Alkaline Phosphatase: 66.5 ± 6.5 IU/L
  Aspartate Aminotransferase: 21.4 ± 1.5 IU/L
  Blood Urea Nitrogen: 12.1 ± 1.0 mg/dL
  CO2: 23.4 ± 0.6 mEq/L
  Chloride: 103.3 ± 0.6 mEq/L
  Cholesterol Ratio: 3.0 ± 0.1
  Creatinine: 0.9 ± 0.1 mg/dL
  Direct Bilirubin: 0.1 ± 0.02 mg/dL
  Globulin: 2.3 ± 0.2 g/dL
  Glucose: 72.6 ± 1.6 mg/dL
  HDL: 51.3 ± 3.2 mg/dL
  Iron: 83.3 ± 16.7 µg/dL
  Iron Binding Capacity: 330.4 ± 32.9 µg/dL
  Iron Saturation: 29.9 ± 9.5%
  LDL: 86.1 ± 5.3 mg/dL
  Lactate Dehydrogenase: 160.9 ± 9.5 IU/L
  Phosphorus: 3.9 ± 0.2 mg/dL
  Potassium: 4.1 ± 0.1 mEq/L
  Protein: 6.3 ± 0.2 g/dL
  Sodium: 139.1 ± 0.5 mEq/L
  Total Bilirubin: 0.5 ± 0.07 mg/dL
  Total Cholesterol: 153.4 ± 9.1 mg/dL
  Triglycerides: 80.4 ± 11.6 mg/dL
  UIBC: 247.1 ± 45.0 µg/dL
  Uric Acid: 4.5 ± 0.3 mg/dL
  Gamma-glutamyl: 13.8 ± 0.9
Before to After
  A:G Ratio % Change: −8.9%
  Alanine Aminotransferase % Change: 10.6%
  Albumin % Change: 0.3%
  Alkaline Phosphatase % Change: 2.8%
  Aspartate Aminotransferase % Change: 4.7%
  Blood Urea Nitrogen % Change: −7.2%
  CO2 % Change: 5.9%
  Chloride % Change: −0.1%
  Cholesterol Ratio % Change: −2.5%
  Creatinine % Change: 0.5%
  Direct Bilirubin % Change: 5.8%
  Gamma-glutamyl % Change: −4.5%
  Globulin % Change: 8.2%
  Glucose % Change: 5.2%
  HDL % Change: 3.7%
  Iron % Change: 11.7%
  Iron Binding Capacity % Change: 3.7%
  Iron Saturation % Change: 4.2%
  LDL % Change: 0.4%
  Lactate Dehydrogenase % Change: 3.0%
  Phosphorus % Change: −10.8%
  Potassium % Change: 13.4%
  Protein % Change: 3.2%
  Sodium % Change: 0.2%
  Total Bilirubin % Change: 7.9%
  Total Cholesterol % Change: 0.3%
  Triglycerides % Change: −10.9%
  UIBC % Change: 1.1%
  Uric Acid % Change: −1.4%
